Patent US6706663B2, “Herbicidal 3-heterocyclic substituted benzisothiazole and benzisoxazole compounds” (Wyeth, priority 2000, dated 2004)

Assays:
[1] = tested on: SAGPY (Sagittaria pygmaea); experiment: Flooded paddy, postemergence weed control; format: in vivo, L.; settings: postemergence weeds, rated 3-4 weeks after treatment
How it was run: (§1)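 Weeds 3–5 cm tall and rice at 1.5–2.5 leaf stage in containers flooded 1.5–3 cm deep; compounds in 50/50 v/v aqueous/acetone injected into flood water at about 0.0320–0.2500 kg/ha. Greenhouse-held; visual 0–9 rating versus untreated control after three to four weeks.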

ORYSAT (Rice, Tebonnet) [2] = experiment: Flooded paddy, post-transplant and postemergence rice tolerance; format: in vivo, Oryza sativa, (L.) Tebonnet; settings: post-transplant rice, rated 3-4 weeks after treatment
How it was run: as §1

[3] = tested on: TRZAWR (Wheat, Winter, cv Riband); experiment: Postemergence herbicidal evaluation; format: in vivo, Triticum aestivum; settings: postemergence, rate 0.0320 kg/ha
How it was run: (§2)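 Seedlings grown about two weeks in flats, sprayed, then kept under standard greenhouse care. Rated visually 4–5 weeks after treatment on a 0–9 scale (stand, vigour, malformation, size, chlorosis, overall appearance) relative to untreated control; repeat tests averaged.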

SETVI (Setaria viridis) = experiment: Postemergence herbicidal evaluation; format: in vivo, (L.) Beau; settings: postemergence
How it was run: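 First, seedlings are raised in flats for about two weeks. Next, compound dispersed in 50/50 acetone/water with 0.5% TWEEN 20 is sprayed at 40 psi to deliver about 0.0040–1.000 kg/ha. Plants are then maintained in the greenhouse and rated 0-9 after four to five weeks.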

GALAP (Galium aparine) [4] = experiment: Postemergence herbicidal evaluation; format: in vivo; settings: postemergence, rate 0.0320 kg/ha
How it was run: as §2

GALAP (Galium aparine) [5] = experiment: Preemergence herbicidal evaluation; format: in vivo; settings: rated 4-5 weeks after treatment
How it was run: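 Seeds planted in potting soil cups and sprayed preemergence with aqueous acetone compound solution. Greenhouse-grown; rated 4–5 weeks after treatment on a 0-9 visual scale (stand, vigor, malformation, size, chlorosis, appearance) versus control.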

ZEAMX (Corn, Field) = experiment: Postemergence herbicidal evaluation; format: in vivo, Zea mays, L.; settings: postemergence
How it was run: as §2

[6] = tested on: CYPSE (Cyperus serotinus); experiment: Flooded paddy, postemergence weed control; format: in vivo, Rottb.; settings: postemergence weeds, rated 3-4 weeks after treatment
How it was run: as §1

[7] = tested on: ECHCG (Echinochloa crus-galli); experiment: Postemergence herbicidal evaluation; format: in vivo, (L.) Beau; settings: postemergence
How it was run: as §2

[8] = tested on: ECHORC (Echinochloa oryzoides); experiment: Flooded paddy, preemergence weed control; format: in vivo, Echinochloa oryzoides (Ard.) Fritsch.; settings: rated 3-4 weeks after treatment, 0-9 rating scale
How it was run: (§3)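 Seeds or propagules were planted in the top 0.5 cm of silt loam soil and kept flooded 1.5–3 cm above the surface throughout, then held in the greenhouse. Injury was rated visually on a 0–9 scale against untreated controls, covering stand, vigor, malformation, size and chlorosis.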

[9] = tested on: SAGPY (Sagittaria pygmaea); experiment: Flooded paddy, preemergence weed control; format: in vivo, L.; settings: rated 3-4 weeks after treatment, 0-9 rating scale
How it was run: as §3

ORYSAT (Rice, Tebonnet) [10] = experiment: Preemergence herbicidal evaluation; format: in vivo, Oryza sativa, (L.) Tebonnet; settings: rated 4-5 weeks after treatment
[11] = tested on: CYPSE (Cyperus serotinus); experiment: Flooded paddy, preemergence weed control; format: in vivo, Rottb.; settings: rated 3-4 weeks after treatment, 0-9 rating scale
How it was run: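 Seeds or propagules were planted 0.5 cm deep in silt loam and flooded to 1.5–3 cm. Compounds in 50/50 v/v aqueous/acetone were pipetted into the flood water at about 0.0080 to 0.1250 kg/ha. After 3–4 weeks in the greenhouse, effect was rated visually on a 0–9 scale versus untreated control.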

[12] = tested on: ECHORC (Echinochloa oryzoides); experiment: Flooded paddy, postemergence weed control; format: in vivo, Echinochloa oryzoides (Ard.) Fritsch.; settings: postemergence weeds, rated 3-4 weeks after treatment
How it was run: as §1

[13] = tested on: MOOVA (Monochoria vaginalis); experiment: Flooded paddy, postemergence weed control; format: in vivo, Presl.; settings: postemergence weeds, rated 3-4 weeks after treatment
How it was run: as §1

Cn1c(C(F)(F)F)cc(=O)n(-c2cc3c(C4OCCO4)nsc3cc2F)c1=O [Compound 61, 3-[3-(1,3-dioxolan-2-yl)-6-fluoro-1,2-benzisothiazol-5-yl]-1-methyl-6-(trifluoromethyl)uracil]
8.5: Preemergence herbicidal rating GALAP (GALAP (Galium aparine) [5]; Rate 0.0160 kg/ha)
9.0: herbicide rating (0-9) SAGPY ([1]; 0.1250 kg/ha into flood water) | herbicide rating (0-9) ORYSAT (rice tolerance) (ORYSAT (Rice, Tebonnet) [2]; 0.0320 kg/ha into flood water) | herbicide rating (0-9) ORYSAT (rice tolerance) (ORYSAT (Rice, Tebonnet) [2]; 0.0620 kg/ha into flood water) | herbicide rating (0-9) ORYSAT (rice tolerance) (ORYSAT (Rice, Tebonnet) [2]; 0.1250 kg/ha into flood water) | GALAP herbicidal rating (GALAP (Galium aparine) [4]) | Preemergence herbicidal rating GALAP (GALAP (Galium aparine) [5]; Rate 0.0320 kg/ha) | herbicide rating (0-9) CYPSE ([6]; 0.0320 kg/ha into flood water) | herbicide rating (0-9) CYPSE ([6]; 0.0620 kg/ha into flood water) | herbicide rating (0-9) CYPSE ([6]; 0.1250 kg/ha into flood water) | herbicidal rating, ECHORC ([8]; rate 0.0320 kg/ha) | herbicidal rating, ECHORC ([8]; rate 0.1250 kg/ha) | herbicidal rating, SAGPY ([9]; rate 0.1250 kg/ha) | Preemergence herbicidal rating ORYSAT (ORYSAT (Rice, Tebonnet) [10]; Rate 0.0320 kg/ha) | herbicidal rating, CYPSE ([11]; rate 0.0320 kg/ha) | herbicidal rating, CYPSE ([11]; rate 0.1250 kg/ha) | herbicide rating (0-9) ECHORC ([12]; 0.0320 kg/ha into flood water) | herbicide rating (0-9) ECHORC ([12]; 0.0620 kg/ha into flood water) | herbicide rating (0-9) ECHORC ([12]; 0.1250 kg/ha into flood water) | herbicide rating (0-9) MOOVA ([13]; 0.0320 kg/ha into flood water) | herbicide rating (0-9) MOOVA ([13]; 0.0620 kg/ha into flood water) | herbicide rating (0-9) MOOVA ([13]; 0.1250 kg/ha into flood water)
8.7: herbicidal rating, ECHORC ([8]; rate 0.0080 kg/ha) | Preemergence herbicidal rating ORYSAT (ORYSAT (Rice, Tebonnet) [10]; Rate 0.0160 kg/ha)
6.0: herbicide rating (0-9) SAGPY ([1]; 0.0320 kg/ha into flood water)
3.0: ECHCG herbicidal rating ([7]; rate 0.0620 kg/ha) | herbicidal rating, SAGPY ([9]; rate 0.0080 kg/ha)
7.5: SETVI herbicidal rating (SETVI (Setaria viridis); rate 0.0320 kg/ha)
8.0: herbicide rating (0-9) SAGPY ([1]; 0.0620 kg/ha into flood water) | SETVI herbicidal rating (SETVI (Setaria viridis); rate 0.0620 kg/ha)
8.3: herbicidal rating, SAGPY ([9]; rate 0.0320 kg/ha)
0.0: Preemergence herbicidal rating GALAP (GALAP (Galium aparine) [5]; Rate 0.0002 kg/ha) | Preemergence herbicidal rating ORYSAT (ORYSAT (Rice, Tebonnet) [10]; Rate 0.0002 kg/ha)
5.0: ECHCG herbicidal rating ([7]; rate 0.0320 kg/ha)
5.5: TRZAWR herbicidal rating [3] | ZEAMX herbicidal rating (ZEAMX (Corn, Field); rate 0.0320 kg/ha) | ZEAMX herbicidal rating (ZEAMX (Corn, Field); rate 0.0620 kg/ha)
